Source: patent US9192613B1, “Treatment method for primary premature ejaculation” (Sapere IP, LLC, priority 2014, dated 2015)

Experiments:
[1] = tested on: men with premature ejaculation; conditions: cited from earlier work
[2] = tested on: patients with primary premature ejaculation; experiment: On-demand treatment of primary premature ejaculation: onset of action; format: in vivo, men; conditions: intracavernosal injection, 5-20 mcg, 20 mcg/ml
Method: Side-effects are dose related and include dizziness, headache, nausea, blurred vision and dry mouth.
The doses start at lower doses such as 5 mcg=0.25 ml and progress to higher doses such as 10 mcg=0.5 ml and 20 mcg=1 ml, as needed, to achieve the desired effect.

[3] = tested on: patients receiving intracavernous injection; conditions: pooled publications; cited from earlier work

SMILES: CN(C)CCCN1c2ccccc2CCc2ccc(Cl)cc21 [Clomipramine]
- Effect at delaying ejaculation ([1]; oral administration): significant effect at delaying ejaculation
- Time the drug needs to be taken before sexual relations ([1]; oral, on-demand use): 3 to 4 h

SMILES: CCCCC[C@H](O)/C=C/[C@H]1[C@H](O)CC(=O)[C@@H]1CCCCCCC(=O)O [Alprostadil]
- Onset of Action [2]: 5 to 10 min

SMILES: COc1ccc(Cc2nccc3cc(OC)c(OC)cc23)cc1OC [Papaverine]
- Fibrosis (%) [3]: 5.7%
- Liver Enzymes (%) [3]: 1.6%
- Pain (%) [3]: 4%
- Priapism (%) [3]: 7.1%
